Data from patent EP0381527A1, “Ouabain like compounds and pharmaceutical compositions containing them” (YISSUM RESEARCH DEVELOPMENT COMPANY OF THE HEBREW …, priority 1989, dated 1990).

What was measured:
Na,K-ATPase [1] = assay: Inhibition of Na,K-ATPase activity in rat brain microsomal fraction (colorimetric inorganic phosphate); format: biochemical
Experimental: Assays for Digitalis-Like Activity: • The digitalis-like activity of each fraction obtained in the course of the purification was determined quantitatively using at least two of the following bioassays: • a. Inhibition of [^3H]-ouabain binding: • The binding of [^3H]-ouabain to rat brain synaptosomal fraction was carried out by a conventional filtration technique as previously described (Lichtstein D., et al., Life Sci. 38: 1261-1270 (1986)). In brief: The reaction mixture (500µl final volume) contained the following constituents (final concentrations): 50 mM Tris-HCI buffer (pH 7.4), 0.5 mM EDTA, 80 mM NaCI, 4 mM MgSO4, 2 mM ATP (Tris, vanadium-free) and 32 nM [^3H]-ouabain (19.5 Ci/mmol). Reactions were initiated by the addition of 200 µl of crude synaptosomal fraction resulting in a final protein concentration of 200 µg per reaction. Following incubation for 1 hr. at 37° C, the reactions were terminated by the addition of 3 ml cold (4°C) 50 mM Tris-HCI (pH 7.4) and filtered over Whatman GF/B filters. The filters were washed two times with 3 ml volumes of the same Tris buffer, dried and assayed for radioactivity in a Packard liquid scintillation counter at a counting efficiency of approximately 50%. Specific binding was calculated by subtracting the binding observed in the presence of 100 µM unlabeled ouabain from that observed in the absence of unlabeled ouabain. Specific binding represented 93% of the total binding under control conditions. • b. Inhibition of Na, K-ATPase activity: • Na,K-ATPase activity in rat brain microsomal fraction was determined as previously described (Lichtstein D., et al., Life Sci. 38: 1261-1270 (1986)). Enzyme activity was measured by the colorimetric determination of inorganic phosphate after the incubation of microsomes (200 µg protein per reaction) at 37 C in a solution (final volume 500 µl) containing (final concentrations) 34 mM Tris-HCI (pH 7.4), 100 mM NaCl, 20 mM KCI, 4 Mm MgC12 and 4 mM ATP (Tris, vanadium free). After preincubation for 10 min., the ATP was added to initiate the reaction. Reactions were terminated by the addition of 100 µl of 5% trichloroacetic acid and.the precipitate was removed by centrifugation. Na,K-independent ATPase activity was determined by omitting Na^+ and K^+ from the reaction mixture or by the addition of 1 mM ouabain to the complete assay mixture. • c. Inhibition of ^86Rb uptake to N1E115 cells: • Neuroblastoma N1E115 cells were grown in MEM (Modified Eagle's Medium) medium. Cells were removed from their growth flask by raising and lowering the medium with a pipette and centrifuged at 100 x g in a Sorval RC-5 centrifuge for 10 minutes. The pellet was resuspended in MEM. 86Rb-uptake was initiated by the addition of N1E115 cells to MEM which contained ^86Rb tracer (1 µCi). Uptake was terminated after 1 min. by the addition of 1.5 ml ice cold 125 mM MgC12 solution followed by 1 min. centrifugation in an Eppendorf centrifuge. The Eppendorf tube was cut and the pellet removed and transferred to a scintilation vial, to which 6 ml of Emulsifier Scintillator 299TM (Packard) were added and radioactivity was determined.

Na,K-ATPase [2] = assay: Inhibition of [3H]-ouabain binding to rat brain synaptosomal fraction (filtration); conditions: Figure 10; result in words
Experimental: Assays for Digitalis-Like Activity: • The digitalis-like activity of each fraction obtained in the course of the purification was determined quantitatively using at least two of the following bioassays: • a. Inhibition of [^3H]-ouabain binding: • The binding of [^3H]-ouabain to rat brain synaptosomal fraction was carried out by a conventional filtration technique as previously described (Lichtstein D., et al., Life Sci. 38: 1261-1270 (1986)). In brief: The reaction mixture (500µl final volume) contained the following constituents (final concentrations): 50 mM Tris-HCI buffer (pH 7.4), 0.5 mM EDTA, 80 mM NaCI, 4 mM MgSO4, 2 mM ATP (Tris, vanadium-free) and 32 nM [^3H]-ouabain (19.5 Ci/mmol). […] The filters were washed two times with 3 ml volumes of the same Tris buffer, dried and assayed for radioactivity in a Packard liquid scintillation counter at a counting efficiency of approximately 50%. Specific binding was calculated by subtracting the binding observed in the presence of 100 µM unlabeled ouabain from that observed in the absence of unlabeled ouabain. […] Inhibition of Na, K-ATPase activity: • Na,K-ATPase activity in rat brain microsomal fraction was determined as previously described (Lichtstein D., et al., Life Sci. 38: 1261-1270 (1986)). […]

CCCC=CC(O)CC(O)CCCCCCCCCC(=O)O (single isomer, unassigned) [DLC-II, 11,13-dihydroxy-14-octadecaenoic acid]
Na+, K+-ATPase activity (% of control) (Na,K-ATPase [1]; amount 1 (arbitrary units)): 90 % of control | Na+, K+-ATPase activity (% of control) (Na,K-ATPase [1]; amount 2 (arbitrary units)): 67 % of control | Na+, K+-ATPase activity (% of control) (Na,K-ATPase [1]; amount 3 (arbitrary units)): 71 % of control | Na+, K+-ATPase activity (% of control) (Na,K-ATPase [1]; amount 5 (arbitrary units)): 51 % of control | Na+, K+-ATPase activity (% of control) (Na,K-ATPase [1]; amount 8 (arbitrary units)): 10 % of control | inhibition of [^3H]-ouabain binding (Na,K-ATPase [2]): inhibit [^3H]-ouabain binding in a dose dependent mode
